{
  "source": "patent US20250082625A1",
  "about": "“NOVEL THERAPY” (priority 2016, published 2025)",
  "key": {"[1]": {"test_system": "Nlrp3^−/− mice infected with CY-17", "experiment": "Disease severity / bladder pathology in CY-17 infected Nlrp3^−/− mice (murine acute cystitis model)", "format": "in vivo", "protocol": "To inhibit the NK1R dependent response to infection, we used the NK1R antagonist SR 140333. FIG. 6a Experimental scheme of NK1R antagonist (SR140333) treatment. Susceptible Nlrp3^−/− mice were infected with CY-17 for 24 hours, and the neuropeptide response and disease severity was compared between untreated infected mice, treated and infected mice and sham treated uninfected mice. The mice were either pre-treated with SR140333 i.p. for 30 minutes prior to infection or treated i.p. 1 hour after infection. Sham treated mice received SR140333 i.p. and PBS intravesically. n=10 mice in each treatment group, n=6 in the sham treated, uninfected group. N=2 in the uninfected control group. Means+SEMs of 2 experiments, total number of mice=39. FIG. 6b Protection against gross bladder pathology in SR140333 treated mice compared untreated, infected mice, FIG. 6c Inhibition of NK1R staining in treated mice compared to infected mice not receiving SR140333. Sections were obtained from 4 mice per condition. FIG. 6d Inhibition of Nk1r expression, detected by qRT-PCR analysis of treated mice compared to untreated, infected mice. Sections were obtained from 5 mice per treatment group. FIG. 6e Attenuated SP staining in SR140333 treated infected mice compared to untreated mice (n=4 mice per condition). […] FIG. 6h Galr2 gene expression is not altered after treatment with SR140333. n=5 mice per treatment group (*=p<0.05, **=p<0.01, Mann-Whitney test). FIG. 6i Protection from bladder tissue pathology shown in H&E stained and neutrophil and bacterial immunostained sections from treated versus control mice. […] (n=10 mice per treatment group, n=4 mice per sham group, means+SEMs, *P<0.05, **P<0.01, ***P<0.001, one way Anova).\nSusceptible Nlrp3^−/− mice were treated with SR140333 intra-peritoneally (1 mg/kg), one hour before infection (pretreatment) or 30 minutes after infection (post-treatment) with CY-17 (FIG. 6a). The severity of acute cystitis after 24 hours or seven days was examined and neuropeptide expression and disease severity quantified by immunohistochemistry and qRT-PCR of whole bladder RNA extracts, using primers specific for NK1R, Ppt-1 or Galr2 as described above.\nBladder tissue was more intact and the inflammatory cell infiltrate was reduced in tissues."}, "NK1R": {"test_system": "NK1R", "experiment": "Neuropeptide response in bladders of CY-17 infected Nlrp3^−/− mice treated with NK1R antagonist (immunohistochemistry, qRT-PCR)", "format": "in vivo", "conditions": "for Nk1r expression (qRT-PCR) / Ppt-1 expression (qRT-PCR): 1 mg/kg i.p.", "text": "Mice were bred and housed in the specific pathogen-free MIG animal facilities (Lund, Sweden) with free access to food and water. Female C57BL/6 mice or Il1b^−/−, Nlrp3^−/−, Asc^−/− mice were used for experiments at 9-15 weeks of age.\nTissues were embedded in O.C.T. compound (VWR) and 7-μm-thick fresh cryosections were mounted on positively charged microscope slides (Superfrost/Plus; Thermo Fisher Scientific) Sections were permeabilized (0.25% Triton X-100, 5% FBS), blocked (5% FBS) and stained: rabbit anti-NK1R (1:50, SC-15323, SantaCruz), rabbit anti-substance p (1:100, ORB11399, Biorbyt), rabbit anti-orexin receptor 2 (1:300, AB104701, Abcam), rabbit anti-GALR2 (1:50, AB136264, Abcam) or rabbit anti-TAS2R43 (1:100, AB65513, Abcam). Antibodies were appropriately labeled using goat anti-rabbit secondary antibodies conjugated to Alexa 488 (1:200 in 0.025% Triton X-100, 5% FBS) for 1 h in RT before nuclear counterstaining using Draq5 (1:1000, Abcam). Sections were imaged by laser scanning confocal microscopy (MSM510 META confocal microscope, Carl Zeiss) or by fluorescence microscopy (AX60, Olympus Optical).\nComplementary DNA was reverse-transcribed from 0.2-1 μg of mice total RNA using SuperScript™ III First-Strand Synthesis System for RT-PCR (Invitrogen), and quantified in real time using primer pairs against Mus musculus Nk1r, Ppt-1^37 and Galr2 and QuantiTect® SYBR® Green PCR kits (Qiagen) on a Rotor Gene Q (Qiagen).\nqRT-PCR reactions were run in technical duplicates and gene expression was analyzed based on ΔΔCT comparison to Mus musculus GAPDH.\nThe severity of acute cystitis after 24 hours or seven days was examined and neuropeptide expression and disease severity quantified by immunohistochemistry and qRT-PCR of whole bladder RNA extracts, using primers specific for NK1R, Ppt-1 or Galr2 as described above."}, "[2]": {"conditions": "Nlrp3^−/− mice, CY-17 infection, SR140333 i.p. 1 mg/kg, vs untreated infected mice, 1 mg/kg"}},
  "note": "“Also recorded” adds a separate entry of the source.",
  "data": [
    {"smiles": "CC(C)Oc1cccc(CC(=O)N2CCC[C@](CC[N+]34CCC(c5ccccc5)(CC3)CC4)(c3ccc(Cl)c(Cl)c3)C2)c1.[Cl-]", "note": "[SR140333, 1-[2-[(3S)-3-(3,4-Dichlorophenyl)-1-[2-[3-(1-methylethoxy)phenyl]acetyl]-3-piperidinyl]ethyl]-4-phenyl-1-azoniabicyclo[2.2.2]octane chloride]", "values": [
      {"measurement": "gross bladder pathology (edema, hyperemia and bladder enlargement)", "setting": "[1]; 24 hours post infection, vs infected mice without therapy", "value": "reduction; also recorded: Protection"},
      {"measurement": "Histology score", "setting": "[1]; after treatment with SR140333", "value": "reduced pathology"},
      {"measurement": "inflammatory cell infiltrate in tissues", "setting": "[1]; treated Nlrp3^−/− mice vs infected mice without therapy", "value": "reduced"},
      {"measurement": "bladder tissue pathology / tissue integrity (H&E, neutrophil and bacterial immunostained sections)", "setting": "[1]; treated versus control mice", "value": "more intact; also recorded: Protection"},
      {"measurement": "mucosal NK1R response to infection (NK1R staining)", "setting": "NK1R; [2]", "value": "reduced; also recorded: Inhibition"},
      {"measurement": "mucosal SP response to infection (SP staining)", "setting": "NK1R; [2]", "value": "reduced; also recorded: Attenuated"},
      {"measurement": "Galr2 expression (qRT-PCR)", "setting": "NK1R; either treatment (prophylactic or post-infection), p=0.19 and p=0.63", "value": "no significant effect; also recorded: not altered"},
      {"measurement": "GALR2 staining", "setting": "NK1R; infected mice, n=4 mice per condition", "value": "does not effect"},
      {"measurement": "Nk1r expression (qRT-PCR)", "setting": "NK1R; post-infection treatment, p<0.01", "value": "reduced"},
      {"measurement": "Ppt-1 expression (qRT-PCR)", "setting": "NK1R; post-infection treatment, p<0.01, 1 mg/kg", "value": "affected; also recorded: Inhibition"},
      {"measurement": "Nk1r expression (qRT-PCR)", "setting": "NK1R; prophylactic treatment (pretreatment), p<0.05", "value": "reduced"},
      {"measurement": "Ppt-1 expression (qRT-PCR)", "setting": "NK1R; prophylaxis (pretreatment), p=0.06", "value": "less efficient"}
    ]}
  ]
}
